Where only a bound is given, the exact number is not on record here.

This experiment relates to P. gingivalis adherence to S. gordonii. In words: Biofilm model of P. gingivalis adherence to S. gordonii (confocal, green/red fluorescence ratio). The experiment is classed as cell-based, P. gingivalis ATCC33277 / S. gordonii DL-1. The following applies: inhibition of P. gingivalis adherence to S. gordonii; concentration that reduced ratio of green to red fluorescence by 50%; tested 0–60 μM. As for the experimental part:
P. gingivalis ATCC33277 was grown in reduced trypticase soy broth (Difco) supplemented with 0.5 percent yeast extract, 1 μg mL^–1 menadione, and 5 μg mL^–1 hemin. Twenty five milliliters of medium were reduced for 24 h under anaerobic conditions by equilibrating in an atmosphere consisting of 10% CO2, 10% H2, and 80% N2. Following equilibration, P. gingivalis was inoculated in the medium and grown for 48 h at 37 °C under anaerobic conditions. S. gordonii DL-1 (1) was cultured aerobically without shaking in brain heart infusion (BHI) broth supplemented with 1 percent yeast extract for 16 hours at 37 °C. For some compounds that inhibited P. gingivalis adherence to S. gordonii, we determined their effect on planktonic growth of P. gingivalis and S. gordonii. The appropriate growth medium (10 ml) was supplemented with 10 μl of a 40 mM compound stock solution in DMSO. After inoculation, broth cultures were incubated as described above and compared to cultures grown in medium that was supplemented only with 0.1% DMSO. The cell density of each culture was determined by measuring the optical density at 600 nm (O.D.600nm) and the percent growth inhibition/stimulation was calculated using the following equation: [(O.D.600nm of the control/O.D.600nm of the culture grown in the presence of compound) – 1] × 100.
Two species biofilms were formed essentially as previously described.[39] To prepare bacterial cells for biofilm culture, 10 ml of an overnight S. gordonii culture was centrifuged at 5600 rpm for 5 min and the cell pellet was suspended in 1 mL sterile PBS. Subsequently, 20 μL of 5 mg ml^–1 hexidium iodide (Molecular Probes) was added to the cell suspension and incubated for 15 min with gentle shaking at room temperature in the dark. The labeled cells were centrifuged as described above, washed with phosphate-buffered saline (10 mM Na2HPO4, […], […], and 2.7 mM KCl, pH 7.2; [PBS]) and the cell pellet was suspended in PBS at a final O.D.600nm of 0.8. Similarly, 10 mL of a 48 h culture of P. gingivalis was centrifuged at 5600 rpm for 15 min, the cell pellet was suspended in 1 mL PBS and 20 μL of 5(6)-carboxyfluorescein N-hydroxysuccinimide ester (4 mg ml^–1, Molecular Probes, Inc.) was added. After incubation for 30 min with gentle shaking at room temperature in the dark, the suspension was centrifuged and washed as described above and suspended in PBS at a final O.D.600nm of 0.4. For biofilm cultures, 1 mL of labeled S. gordonii cells was added to each well of a 12-well microtiter plate (Greiner Bio-one) containing a circular coverslip (Fisher brand) and incubated in an anaerobic chamber with rotary shaking for 24 h at 37 °C. Unbound cells were removed by aspiration and 1 ml of labeled P. gingivalis cells containing the desired concentration of test compound was added and incubated under anaerobic conditions for 22 h at 37 °C. Test compounds were dissolved in dimethyl sulfoxide (DMSO) to generate 1000× stock solutions and were routinely tested over a final concentration range of 0–60 μM. 1 μL of the appropriate stock solution was added to each 1 mL aliquot of labeled P. gingivalis cells and incubated for 30 min at room temperature prior to adding the suspension to the microtiter plate wells. For control biofilms, 1 μL of DMSO was added to 1 mL of labeled P. gingivalis and incubated as described above.
To visualize P. gingivalis/S. gordonii biofilms, unbound P. gingivalis cells were removed by aspiration and coverslips were washed once with PBS. Biofilms were fixed by incubating the coverslips with 1 mL of 4% paraformaldehyde for 5 min followed by two washes with PBS. The coverslips were then removed, placed face down on a glass microscope slide containing a drop of antifade reagent (Life Technology) and sealed with nail polish. […]
What is called IC50 is the point on the concentration scale where inhibition reaches its midpoint. In the case of `[O-][S+](Cc1nc(-c2ccccc2)c(-c2ccccc2)o1)c1ccc(-n2cc(-c3cccnc3)nn2)cc1` (stereo not drawn) [Compound 28, 4,5-Diphenyl-2-(((4-(4-(pyridin-3-yl)-1H-1,2,3-triazol-1-yl)phenyl)sulfinyl)methyl) oxazole], the IC50 was greater than 60 µM. In the case of `[O-][S+](Cc1nc(-c2ccccc2)c(-c2ccccc2)o1)c1ccc(-n2cc(-c3ccc(F)cc3)nn2)cc1` (stereo not drawn) [Compound 29], the IC50 is greater than 60 µM. To `[O-][S+](Cc1nc(-c2ccccc2)c(-c2ccccc2)o1)c1ccc(-n2cc(-c3cccc(F)c3)nn2)cc1` (stereo not drawn) [Compound 30] belongs 47.3 µM; to `COc1ccccc1-c1cn(-c2ccc([S+]([O-])Cc3nc(-c4ccccc4)c(-c4ccccc4)o3)cc2)nn1` (stereo not drawn) [Compound 31], greater than 60 µM; to `[O-][S+](Cc1nc(-c2ccccc2)c(-c2ccccc2)o1)c1ccc(-n2cc(-c3ccccc3C(F)(F)F)nn2)cc1` (stereo not drawn) [Compound 32], greater than 60 µM. Next, `COc1ccc2cc(-c3cn(-c4ccc([S+]([O-])Cc5nc(-c6ccccc6)c(-c6ccccc6)o5)cc4)nn3)ccc2c1` (stereo not drawn) [Compound 33]: greater than 60 µM; `CCCCCc1ccc(-c2cn(-c3ccc([S+]([O-])Cc4nc(-c5ccccc5)c(-c5ccccc5)o4)cc3)nn2)cc1` (stereo not drawn) [Compound 34]: greater than 60 µM. Next, `[O-][S+](Cc1nc(-c2ccccc2)c(-c2ccccc2)o1)c1ccc(-n2cc(-c3ccc(Oc4ccccc4)cc3)nn2)cc1` (stereo not drawn) [Compound 35]: greater than 60 µM; `[O-][S+](Cc1nc(-c2ccccc2)c(-c2ccccc2)o1)c1ccc(-n2cc(-c3cc(C(F)(F)F)cc(C(F)(F)F)c3)nn2)cc1` (stereo not drawn) [Compound 36]: greater than 60 µM; `O=S(=O)(Cc1nc(-c2ccccc2)c(-c2ccccc2)o1)c1ccc(-n2cc(-c3cccnc3)nn2)cc1` [Compound 37]: greater than 60 µM. With `O=S(=O)(Cc1nc(-c2ccccc2)c(-c2ccccc2)o1)c1ccc(-n2cc(-c3ccc(F)cc3)nn2)cc1` [Compound 38], the IC50 stood at 15.7 µM.

For the molecule `O=S(=O)(Cc1nc(-c2ccccc2)c(-c2ccccc2)o1)c1ccc(-n2cc(-c3cccc(F)c3)nn2)cc1` [Compound 39], the IC50 worked out at 33.6 µM. To `COc1ccccc1-c1cn(-c2ccc(S(=O)(=O)Cc3nc(-c4ccccc4)c(-c4ccccc4)o3)cc2)nn1` [Compound 40] belongs 13.1 µM. Next, `O=S(=O)(Cc1nc(-c2ccccc2)c(-c2ccccc2)o1)c1ccc(-n2cc(-c3ccccc3C(F)(F)F)nn2)cc1` [Compound 41]: greater than 60 µM. To `COc1ccc2cc(-c3cn(-c4ccc(S(=O)(=O)Cc5nc(-c6ccccc6)c(-c6ccccc6)o5)cc4)nn3)ccc2c1` [Compound 42] belongs greater than 60 µM; to `CCCCCc1ccc(-c2cn(-c3ccc(S(=O)(=O)Cc4nc(-c5ccccc5)c(-c5ccccc5)o4)cc3)nn2)cc1` [Compound 43], 36.6 µM. In the case of `O=S(=O)(Cc1nc(-c2ccccc2)c(-c2ccccc2)o1)c1ccc(-n2cc(-c3ccc(Oc4ccccc4)cc3)nn2)cc1` [Compound 44], the 50% inhibitory concentration (IC50) is 16.5 µM.

`O=S(=O)(Cc1nc(-c2ccccc2)c(-c2ccccc2)o1)c1ccc(-n2cc(-c3cc(C(F)(F)F)cc(C(F)(F)F)c3)nn2)cc1` [Compound 45]: the IC50 stood at 38.5 µM. Next, `[O-][S+](Cc1nc(-c2ccc(F)cc2)c(-c2ccc(F)cc2)o1)c1ccc(-n2cc(-c3cccc(F)c3)nn2)cc1` (stereo not drawn) [Compound 46]: 5.3 µM. `[O-][S+](Cc1nc(-c2ccc(F)cc2)c(-c2ccc(F)cc2)o1)c1ccc(-n2cc(-c3ccc(F)cc3)nn2)cc1` (stereo not drawn) [Compound 47]: the IC50 turned out to be 35.9 µM. To `COc1ccccc1-c1cn(-c2ccc([S+]([O-])Cc3nc(-c4ccc(F)cc4)c(-c4ccc(F)cc4)o3)cc2)nn1` (stereo not drawn) [Compound 48] belongs 7.2 µM.

For `[O-][S+](Cc1nc(-c2ccc(Cl)cc2)c(-c2ccc(Cl)cc2)o1)c1ccc(-n2cc(-c3cccc(F)c3)nn2)cc1` (stereo not drawn) [Compound 49], the IC50 came to 15.1 µM. For the molecule `[O-][S+](Cc1nc(-c2ccc(Cl)cc2)c(-c2ccc(Cl)cc2)o1)c1ccc(-n2cc(-c3ccc(F)cc3)nn2)cc1` (stereo not drawn) [Compound 50], the IC50 amounted to 39.8 µM. Turning to `COc1ccccc1-c1cn(-c2ccc([S+]([O-])Cc3nc(-c4ccc(Cl)cc4)c(-c4ccc(Cl)cc4)o3)cc2)nn1` (stereo not drawn) [Compound 51], the IC50 turned out to be 10.2 µM. Next, `O=S(=O)(Cc1nc(-c2ccc(F)cc2)c(-c2ccc(F)cc2)o1)c1ccc(-n2cc(-c3cccc(F)c3)nn2)cc1` [Compound 52]: 40 µM. Next, `O=S(=O)(Cc1nc(-c2ccc(F)cc2)c(-c2ccc(F)cc2)o1)c1ccc(-n2cc(-c3ccc(F)cc3)nn2)cc1` [Compound 53]: 40 µM. `O=S(=O)(Cc1nc(-c2ccc(Cl)cc2)c(-c2ccc(Cl)cc2)o1)c1ccc(-n2cc(-c3cccc(F)c3)nn2)cc1` [Compound 55]: the IC50 is 18.2 µM. To `CCN(CC)c1nc(-c2cn(-c3cccc(-c4nc(-c5ccccc5)c(-c5ccccc5)o4)c3)nn2)nc(N(CC)CC)n1` [Compound 90] belongs 20.7 µM; to `CCN(CC)c1nc(-c2cn(-c3ccc(-c4nc(-c5ccccc5)c(-c5ccccc5)o4)cc3)nn2)nc(N(CC)CC)n1` [Compound 91], greater than 60 µM; to `CCN(CC)c1nc(-c2cn(-c3cccc(-c4nc(-c5ccc(F)cc5)c(-c5ccc(F)cc5)o4)c3)nn2)nc(N(CC)CC)n1` [Compound 92], greater than 60 µM. To `CCN(CC)c1nc(-c2cn(-c3cccc(-c4nc(-c5ccc(Cl)cc5)c(-c5ccc(Cl)cc5)o4)c3)nn2)nc(N(CC)CC)n1` [Compound 94] belongs 16 µM; to `CCN(CC)c1nc(-c2cn(-c3cccc(-c4nc(-c5ccc(OC)cc5)c(-c5ccc(OC)cc5)o4)c3)nn2)nc(N(CC)CC)n1` [Compound 96], greater than 60 µM; to `CCN(CC)c1nc(-c2cn(-c3ccc(-c4nc(-c5ccc(OC)cc5)c(-c5ccc(OC)cc5)o4)cc3)nn2)nc(N(CC)CC)n1` [Compound 97], 36.6 µM. Consider `CCN(CC)c1nc(-c2cn(-c3cccc(-c4nc(-c5ccco5)c(-c5ccco5)o4)c3)nn2)nc(N(CC)CC)n1` [Compound 98], for which the IC50 was greater than 60 µM. Next, `CCN(CC)c1nc(-c2cn(-c3ccc(-c4nc(-c5ccco5)c(-c5ccco5)o4)cc3)nn2)nc(N(CC)CC)n1` [Compound 99]: greater than 60 µM.

Regarding `Fc1ccccc1Nc1nc(Nc2ccccc2F)nc(-c2cn(-c3cccc(-c4nc(-c5ccccc5)c(-c5ccccc5)o4)c3)nn2)n1` [Compound 100], the IC50 is 9.6 µM. Next, `Fc1ccccc1Nc1nc(Nc2ccccc2F)nc(-c2cn(-c3ccc(-c4nc(-c5ccccc5)c(-c5ccccc5)o4)cc3)nn2)n1` [Compound 101]: greater than 60 µM.

For the molecule `Fc1ccccc1Nc1nc(Nc2ccccc2F)nc(-c2cn(-c3cccc(-c4nc(-c5ccc(Cl)cc5)c(-c5ccc(Cl)cc5)o4)c3)nn2)n1` [Compound 104], the IC50 amounted to 33.8 µM.

For `Fc1ccccc1Nc1nc(Nc2ccccc2F)nc(-c2cn(-c3ccc(-c4nc(-c5ccc(Cl)cc5)c(-c5ccc(Cl)cc5)o4)cc3)nn2)n1` [Compound 105], the IC50 is greater than 60 µM. To `COc1ccc(-c2nc(-c3cccc(-n4cc(-c5nc(Nc6ccccc6F)nc(Nc6ccccc6F)n5)nn4)c3)oc2-c2ccc(OC)cc2)cc1` [Compound 106] belongs greater than 60 µM; to `COc1ccc(-c2nc(-c3ccc(-n4cc(-c5nc(Nc6ccccc6F)nc(Nc6ccccc6F)n5)nn4)cc3)oc2-c2ccc(OC)cc2)cc1` [Compound 107], 40 µM.

As for `Fc1ccccc1Nc1nc(Nc2ccccc2F)nc(-c2cn(-c3cccc(-c4nc(-c5ccco5)c(-c5ccco5)o4)c3)nn2)n1` [Compound 108], the IC50 was greater than 60 µM.

The values are drawn from publication PMC6390472, “‘Second-generation’ 1,2,3-triazole-based inhibitors of Porphyromonas gingivalis adherence to oral streptococci and biofilm formation” (MedChemComm, 2019).
